Test results published in article PMC8247886, “Getting a Grip on the Undrugged: Targeting β‐Catenin with Fragment‐Based Methods” (Chemmedchem, 2021).
In brackets after ≈: the same amount, converted by molar mass.

Assays:
[1] = Solubility in NMR buffer at pH 7.5 by quantitative NMR (maleic acid external standard); assay type: physicochemical; conditions: NMR buffer (Tris/NaCl with 2% DMSO-d6), aqueous buffer, kinetic from dmso stock; NMR buffer pH 7.5; intended concentration 500 or 2000 μM; read-out: Solub. pH 7.5
Method: buffer (Tris 25 mM, pH 7.5, NaCl 150 mM) containing 2% DMSO-d6. […]
Solubility of compounds was determined in NMR buffer at pH 7.5 (see above) by integrating the
signal of 250 µM maleic acid as an external standard relative to the integrals of the ligands. If the
intended concentrations of 500 µM respective 2000 µM were reached the value is reported as >
500 µM or > 2000 µM. […]

[2] = biological target: T1, β-catenin141–305 (Homo sapiens, UniProt P35222); experiment: Microscale Thermophoresis (MST) screening and Kd determination; assay type: binding
T1 construct: Amino acids 141-305 of uniprot ID: P35222; GST (cleaved yes); made in house; host or cells: E. coli BL21 (DE3)
T1 sequence (P35222 141-305): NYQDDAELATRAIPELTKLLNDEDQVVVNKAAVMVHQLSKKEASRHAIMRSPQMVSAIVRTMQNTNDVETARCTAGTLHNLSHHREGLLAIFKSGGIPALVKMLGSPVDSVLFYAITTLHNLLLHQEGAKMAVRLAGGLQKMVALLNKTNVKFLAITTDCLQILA
Method: buffer (Tris 25 mM, pH 7.5, NaCl 150 mM) containing 2% DMSO-d6. A stock solution of β-catenin135-663 (12.5 µM) was dialyzed before into Tris 25 mM pH 7.6 NaCl 150 mM and centrifuged at 4° C at 15000 rpm for 20 minutes. Intensity ratios Ilogsy/I1D are derived from scaling of the 1D intensity to the corresponding LOGSY intensity. STD GEMs were acquired with 1.5 µM […]
2.0; and 3.0 seconds for the saturation time build up curves to determine the initial rate constants2.
STD experiments were acquired with on and off resonance saturation at +0.1ppm and -40ppm respectively with 1048 scans each.
Solubility of compounds was determined in NMR buffer at pH 7.5 (see above) by integrating the signal of 250 µM maleic acid as an external standard relative to the integrals of the ligands. If the intended concentrations of 500 µM respective 2000 µM were reached the value is reported as > 500 µM or > 2000 µM. Compound 3 only reached a concentration of 1000 µM according to the QNMR experiment even though 2000 µM was intended, it’s solubility is therefore reported as […]
Microscale Thermophoresis.
Fluorescence labeling of β-catenin141-305 with the NT647 dye was achieved using the Monolith NT.115 Protein Labeling Kit RED-NHS according to the manufacturer’s protocol (NanoTemper Technologies, Munich, Germany). The BCL9 peptide was used as positive control for assay development to achieve a reliably detectable change in the thermophoretic mobility ( ΔFnorm). […]
Final assay conditions were 50 nM NT647 labeled β-catenin141-305 in PBS pH 6.8 supplemented with 100 mM NaNO3, 0.5 mM TCEP and 0.05% Tween-20 at 25° C. Fragment screening detected […]
by MST was carried out as previously described8,9. […] Manual inspection of all MST traces was used to reject non-standard traces stemming from protein aggregation, bleaching, or fluorescence quenching. ΔFnorm values (ΔFnorm=Fhot/Fcold) were calculated and the mean values of the duplicates were compared to the mean values of the DMSO negative control. […] Protein integrity over the entire FBS was monitored by the BCL9 peptide positive control. […]

[3] = biological target: β-catenin; parameters: method as in PMID 11237626; conditions: read-out: binding affinity to β-catenin; cited from earlier work
[4] = biological target: T1, β-catenin141–305; experiment: Surface Plasmon Resonance (SPR) Kd determination; assay type: binding; conditions: mean of three independent experiments ± SD; 1:1 steady-state fit
Method: Surface Plasmon Resonance (SPR)
A Biacore T200 instrument was used for SPR analysis, β-catenin141-305 was pre-diluted to a concentration of 0.1 mg/mL with 10 mM sodium acetate buffer, pH 5.0 and immobilized at a density of 6000 –7000 response units on flow cell 2 of a Biacore CM5 chip. Carbonic anhydraseII served as a reference protein on flow cell 3 and flow cell 1 was kept blank and used as the reference surface. A mixture of 20 mM Tris, pH 7.5, 150 mM NaCl, 0.5 mM TCEP, 0.005% Tween20, 2 % dimethyl sulfoxide was used as assay buffer. After pre -equilibration of the chip with 10 blank injections, the Kd measurements were performed by injecting a concentration series of analyte (9 concentrations, 1:1 dilutions). BCL9 347-392 served as a positive control. K d values were determined by global fitting of the steady-state response for each of the 9 concentrations to a 1:1 interaction model using the Biacore T200 evaluation software. Each compound was injected three times and […]
average Kd values were calculated from the repeats. The reported data are the mean values of three independent experiments ± standard deviations. […]
Glutamax Supplement (Thermo Fisher Scientific, 35050061) with 10% FCS (GE Healthcare, SH30071.03). Transfections were performed with Lipofectamine LTX Reagent (Thermo Fisher, 15338100) according the manufacturer’s instructions.

[5] = biological target: T1, β-catenin141–305; experiment: 2D 15N NMR (TROSY/HSQC/HMQC) detected binding and Kd titration
Method: The construct for expression of β-catenin141-305 (Amino acids 141-305 of uniprot ID: P35222) is based on the previously reported R4 construct1. The plasmid was used to transform E. coli, strain BL21 (DE3) cells (Invitrogen). For protein expression, an overnight culture in LB-medium supplemented ampicillin (100 µg/mL) at 37 °C was prepared and diluted the next day with fresh 2xYT-medium. At OD600 of 0.8 the culture was cooled down to 18 °C and after induction with 0.5 mM IPTG incubated for 20 h. Cell pellets obtained by centrifugation at 5000 rpm were stored at - 20 °C. Cells were solubilized in buffer A (2X Dulbecco’s PBS; 500 mM NaCl; 10 % Glycerol; 0.5 mM TCEP; cOmplete™ Protease Inhibitor Cocktail; pH 7.4) and disrupted by sonication (Sonopuls, Bandelin) on ice. After 30 min the sonicated lysate was clarified by centrifugation (50 min, 13500 rpm, 4 °C). The supernatant was mixed with 20 mL Glutathione Sepharose® 4B resin (GE Healthcare) slurry, washed in lysis buffer, and steered for 3 hours on ice. The beads were spun down, loaded into a XK16 column cartridge and washed with lysis buffer until baseline. The protein was eluted with buffer B (2X Dulbecco’s PBS; 500 mM NaCl; 10 % Glycerol; 0.5 mM TCEP;; pH 7.4) + 25 mM L-Glutathione reduced. After cleavage with 2000 units Human Alpha Thrombin (Enzyme Research Laboratories) at room temperature overnight, the protein was collected in the flow-through fraction of a second GST run (GSTrap HP 5 mL column; GE Healthcare) using buffer B. The flow-through was concentrated by centrifugation using an Amicon© Ultra 15 mL Centrifugal Filter (Merck Millipore) and loaded onto a HiLoad Superdex S75 column (GE Healthcare) equilibrated with 50 mM Tris; 200 mM NaCl; 3 mM DTT; pH 8.
Fractions were analyzed by SDS-PAGE and fractions containing the desired protein were pooled and concentrated with an Amicon© Ultra 15 mL Centrifugal Filter (Merck Millipore). […]
For confirmation of hits obtained from STD-NMR by 2D 15N TROSY NMR4 a Bruker Avance III 600 MHz instrument with a 5 mm cryo-TCI probe and z-gradient was used. The experimental set up (automated sample preparation and transfer into the magnet by a Tecan Freedom Evo pipetting robot and a Bruker Sample Rail system, respectively) was identical. Each sample contained 25 uM 15N labeled β-catenin141-305 25 mM sodium phosphate, 150 mM sodium chloride, 100 mM sodium nitrate, 0.5mM TCEP pH 6.8 in H2O at 25 °C and 8% (v/v) D2O. The protein was incubated with 500 uM fragment in a 2.5 mm NMR tube at 25 °C and a d6DMSO concentration of 1%. Spectra were recorded with 48 transients and 64 data points in the indirect dimension. Manual comparison of the spectrum in the presence of the to be tested fragment with the DMSO reference spectrum reveal either line broadening or chemical shift perturbation of cross peaks. Both effects are indicative for compound binding. All processing and analysis was done with the Topspin 2.1 software (Bruker BioSpin). Further spectral comparisons were performed with the FELIX software package (Felix NMR Inc.) to combine manual with automated analysis5. […]
700MHz spectrometer equipped with a cryogenically cooled 5mm TCI probe. […]
The
WaterLOGSY pulse sequence was used as described before7. Selective water inversion was achieved with a double excitation sculpting element employing water selective Gaussian refocusing pulses (inversion bandwidth of 0.5 ppm, pulse length of 7.5 ms). The number of scans was set to 2048. Sample concentrations were 0.5 mM ligand and 0.25–10 µM β-catenin135-663 in […]

[6] = 15N NMR titration, single titration, mean of curves of selected cross peaks ± SD, read-out: HSQC Kd

Row | Compound | solubility [1] [µM] | Kd [4] [µM] | Kd [5, 6] [µM] | also measured
1 | CC1SCC(=O)Nc2cc(Cl)ccc21 (stereo not shown) [Compound 2] | > 500 | – | – | Kd ([2]; 50 nM labeled β-catenin141–305, single titration): 820 ± 320 µM; MST binding signal ΔΔF nom ([2]; 500 μM compound, 1 % DMSO, standard deviation with DMSO 1.8‰): 7.5 ‰
2 | TCF4: transcription factor, natural binding partner of β-catenin | – | – | – | Kd [3]: ~0.02 µM
3 | CN1C[C@H](c2ccccc2)Oc2ccccc2C1=O [Compound 5] | > 2000 | > 10000 | > 10000 | –
4 | CN1CC(c2ccccc2)Nc2ccccc2C1=O (stereo not shown) [Compound 3] | 1000 (≈ 252 µg/mL) | – | 1100 ± 255 | –
5 | CN1C[C@@H](c2cccc(C#N)c2)Oc2ccccc2C1=O [Compound 6] | > 2000 | 1390 ± 46 | 915 ± 303 | Kd ([5]; titration curve of single cross peak D207, read-out: NMR Kd, cross peak D207): 1010 µM; Kd ([5]; titration curve of single cross peak G245, read-out: NMR Kd, cross peak G245): 575 µM; Kd ([5]; titration curve of single cross peak V208, read-out: NMR Kd, cross peak V208): 1160 µM
6 | CN1C[C@@H](c2ccccc2)Oc2ccccc2C1=O [Compound 4] | > 2000 | > 10000 | 2260 ± 1260 | –
7 | CN1C[C@H](c2cccc(C#N)c2)Oc2ccccc2C1=O [Compound 7] | > 2000 | > 10000 | > 10000 | chemical shift perturbations (CSPs) in 2D 15N NMR ([5]; 500 μM compound): did not show any CSPs
